# What was measured:
# Corn = experiment: Greenhouse test, combination of Procedures II and III: insecticide in-furrow or in cover layer, herbicide and antidote incorporated in cover layer (Examples 1-3, 6; Tables 1-3, 6); format: in vivo; conditions: for % Injury Corn / % Corn Injury PN 3320 / % Corn Injury PN 3377: 3 weeks; for Percent Injury Corn: 7 weeks; for corn injury safened: 0.14 kg/ha herbicide plus Insecticide No. 1, Antidote No. 1 0.42 kg/ha
# VELE (velvetleaf) = experiment: Greenhouse test Procedure II (Example 4; Table 4); format: in vivo, Abutilon theophrasti; conditions: 3 weeks
# Procedure: Containers were filled and compacted with a fumigated silt loam top soil to a depth of about 1.3 cm from the top of the container. A first container was designated as an untreated control, a second container was designated as a herbicide control, and a third container was designated as a herbicide + antidote test container. Each of the containers was seeded with a crop species. A measured amount of herbicide dispersed or dissolved in acetone was applied to a measured quantity of soil. To this same quantity of soil treated with herbicide, there was added a measured amount of antidote dispersed or dissolved in acetone. The quantity of soil treated with the herbicide and antidote was thoroughly mixed to incorporate the herbicide and antidote in the soil uniformly. The seed bed in the third container of soil was covered with the soil treated with the herbicide and antidote and the container was leveled. For each test series, the seed beds of the first and second containers were likewise covered by soil layers. the cover layer of the first container was not treated with herbicide or antidote.
# This procedure is the same as Procedure I, but modified in the manner that after incorporation of the chemicals (herbicide, antidote and insecticide), the containers with the covered seedbed were treated with an initial overhead irrigation equivalent to 0.6 cm rainfall, then subsequently sub-irrigated as required on greenhouse benches.
# The procedure used in this test was Procedure No. 2 above. Formulations of herbicide, insecticide and antidote were applied via track sprayer sequentially onto cover layers, incorporated into the soil which was spread over seedbeds, then irrigated from above with 0.6 cm water. Observations were made three (3) weeks after treatment.
# [1] = Ex. 6: Antidote 1 0.14 + Herbicide 1 0.14 Kg/Ha
# [2] = Ex. 6: Antidote 1 0.42 + Herbicide 1 0.14 Kg/Ha
# [3] = Ex. 6: Antidote 1 0.56 + Herbicide 1 0.56 Kg/Ha
# [4] = Ex. 6: Antidote 1 1.68 + Herbicide 1 0.56 Kg/Ha
# [5] = Ex. 6: Insecticide 1 0.23 Kg/305m + Antidote 1 0.14 + Herbicide 1 0.14 Kg/Ha
# [6] = Ex. 6: Insecticide 1 0.23 Kg/305m + Antidote 1 0.42 + Herbicide 1 0.14 Kg/Ha
# [7] = Ex. 6: Insecticide 1 0.23 Kg/305m + Antidote 1 0.56 + Herbicide 1 0.56 Kg/Ha
# [8] = Ex. 6: Insecticide 1 0.23 Kg/305m + Antidote 1 1.68 + Herbicide 1 0.56 Kg/Ha
# [9] = Ex. 6: Insecticide 2 0.23 Kg/305m + Antidote 1 0.14 + Herbicide 1 0.14 Kg/Ha
# [10] = Ex. 6: Insecticide 2 0.23 Kg/305m + Antidote 1 0.42 + Herbicide 1 0.14 Kg/Ha
# [11] = Ex. 6: Insecticide 2 0.23 Kg/305m + Antidote 1 0.56 + Herbicide 1 0.56 Kg/Ha
# [12] = Ex. 6: Insecticide 2 0.23 Kg/305m + Antidote 1 1.68 + Herbicide 1 0.56 Kg/Ha
structure (smiles),measurement,setting,value
"CC1(C)OC(c2ccco2)CN1C(=O)C(Cl)Cl (stereo not shown) [Antidote No. 1, Oxazolidine, 3-(dichloroacetyl)-2,2-dimethyl-5-(2-furanyl)-]",% Injury Corn,Corn; Ex. 3: Insecticide 3 (227g) + Antidote 1 0.14 + Herbicide 1 0.14 Kg/Ha,0%
same,% Injury Corn,Corn; Ex. 3: Insecticide 3 (227 g) + Antidote 1 0.22 + Herbicide 1 0.14 + Herbicide 2 4.48 Kg/Ha,18%
same,% Injury Corn,Corn; Ex. 3: Insecticide 3 (227 g) + Antidote 1 0.22 + Herbicide 2 4.48 Kg/Ha,25%
same,% Injury Corn,Corn; Ex. 3: Insecticide 3 (227g) + Antidote 1 0.42 + Herbicide 1 0.14 Kg/Ha,20%
same,% Injury Corn,Corn; Ex. 3: Insecticide 3 (227g) + Antidote 1 1.68 + Herbicide 1 0.56 Kg/Ha,8%
same,% Injury Corn,Corn; Ex. 3: Insecticide 4 (227g) + Antidote 1 0.14 + Herbicide 1 0.14 Kg/Ha,3%
same,% Injury Corn,Corn; Ex. 3: Insecticide 4 (227g) + Antidote 1 0.22 + Herbicide 1 0.14 + Herbicide 2 4.48 Kg/Ha,48%
same,% Injury Corn,Corn; Ex. 3: Insecticide 4 (227g) + Antidote 1 0.22 + Herbicide 2 4.48 Kg/Ha,45%
same,% Injury Corn,Corn; Ex. 3: Insecticide 4 (227g) + Antidote 1 0.42 + Herbicide 1 0.14 Kg/Ha,5%
same,% Injury Corn,Corn; Ex. 3: Insecticide 4 (227g) + Antidote 1 0.56 + Herbicide 1 0.56 Kg/Ha,28%
same,% Injury Corn,Corn; Ex. 3: Insecticide 4 (227g) + Antidote 1 1.68 + Herbicide 1 0.56 Kg/Ha,5%
same,% Corn Injury PN 3320,Corn; [1],15%
same,% Corn Injury PN 3377,Corn; [1],15%
same,% Corn Injury PN 3320,Corn; [2],10%
same,% Corn Injury PN 3377,Corn; [2],0%
same,% Corn Injury PN 3320,Corn; [3],68%
same,% Corn Injury PN 3377,Corn; [3],0%
same,% Corn Injury PN 3320,Corn; [4],43%
same,% Corn Injury PN 3377,Corn; [4],0%
same,% Corn Injury PN 3320,Corn; [5],40%
same,% Corn Injury PN 3377,Corn; [5],18%
same,% Corn Injury PN 3320,Corn; [6],25%
same,% Corn Injury PN 3377,Corn; [6],3%
same,% Corn Injury PN 3320,Corn; [7],40%
same,% Corn Injury PN 3377,Corn; [7],35%
same,% Corn Injury PN 3320,Corn; [8],35%
same,% Corn Injury PN 3377,Corn; [8],35%
same,% Corn Injury PN 3320,Corn; [9],15%
same,% Corn Injury PN 3377,Corn; [9],0%
same,% Corn Injury PN 3320,Corn; [10],10%
same,% Corn Injury PN 3377,Corn; [10],13%
same,% Corn Injury PN 3320,Corn; [11],68%
same,% Corn Injury PN 3377,Corn; [11],10%
same,% Corn Injury PN 3320,Corn; [12],43%
same,% Corn Injury PN 3377,Corn; [12],28%
same,Percent Injury Corn,Corn; Insecticide 1 0.23 kg/305m + Antidote 1 0.14 + Herbicide 1 0.14 Kg/Ha,8%
same,Percent Injury Corn,"Corn; Insecticide 1 0.23 kg/305m + Antidote 1 0.14 Kg/Ha, no herbicide",0%
same,Percent Injury Corn,Corn; Insecticide 1 0.23 kg/305m + Antidote 1 0.56 + Herbicide 1 0.56 Kg/Ha,25%
same,Percent Injury Corn,"Corn; Insecticide 1 0.23 kg/305m + Antidote 1 0.56 Kg/Ha, no herbicide",0%
same,Percent Injury Corn,Corn; Insecticide 1 0.23 kg/305m + Antidote 1 2.24 + Herbicide 1 2.24 Kg/Ha,77%
same,Percent Injury Corn,"Corn; Insecticide 1 0.23 kg/305m + Antidote 1 2.24 Kg/Ha, no herbicide",0%
same,Percent Injury Corn,Corn; Insecticide 1 (H2O) (crystals scattered in-furrow) + Antidote 1 2 + Herbicide 1 2 Kg/Ha,78%
same,Percent Injury Corn,Corn; Insecticide 1 (H2O) (crystals scattered in-furrow) + Antidote 1 2 Kg/Ha,13%
same,Percent Injury Corn,Corn; Insecticide 2 3.36 kg/ha + Antidote 1 0.14 + Herbicide 1 0.14 Kg/Ha,75%
same,Percent Injury Corn,"Corn; Insecticide 2 3.36 kg/ha + Antidote 1 0.14 Kg/Ha, no herbicide",0%
same,Percent Injury Corn,Corn; Insecticide 2 3.36 kg/ha + Antidote 1 0.56 + Herbicide 1 0.56 Kg/Ha,70%
same,Percent Injury Corn,"Corn; Insecticide 2 3.36 kg/ha + Antidote 1 0.56 Kg/Ha, no herbicide",0%
same,Percent Injury Corn,Corn; Insecticide 2 3.36 kg/ha + Antidote 1 2.24 + Herbicide 1 2.24 Kg/Ha,92%
same,Percent Injury Corn,"Corn; Insecticide 2 3.36 kg/ha + Antidote 1 2.24 Kg/Ha, no herbicide",0%
same,corn injury safened,Corn; sensitive genotype PN 3320,74%
same,corn injury safened,Corn; tolerant genotype PN 3377,96%
same,% Injury VELE,VELE (velvetleaf); Antidote 1 0.07 + Herbicide 1 0.07 kg/Ha,8%
same,% Injury VELE,VELE (velvetleaf); Antidote 1 0.07 + Herbicide 4 0.07 kg/Ha,0%
same,% Injury VELE,VELE (velvetleaf); Antidote 1 0.07 + Herbicide 5 0.07 kg/Ha,68%
same,% Injury VELE,VELE (velvetleaf); Antidote 1 0.07 + Herbicide 6 0.07 kg/Ha,5%
same,% Injury VELE,VELE (velvetleaf); Antidote 1 0.14 + Herbicide 1 0.14 kg/Ha,43%
same,% Injury VELE,VELE (velvetleaf); Antidote 1 0.14 + Herbicide 4 0.14 kg/Ha,30%
same,% Injury VELE,VELE (velvetleaf); Antidote 1 0.14 + Herbicide 5 0.14 kg/Ha,68%
same,% Injury VELE,VELE (velvetleaf); Antidote 1 0.14 + Herbicide 6 0.14 kg/Ha,28%
same,% Injury VELE,VELE (velvetleaf); Insecticide 2 3.36 + Antidote 1 0.014 + Herbicide 1 0.14 kg/Ha,53%
same,% Injury VELE,VELE (velvetleaf); Insecticide 2 3.36 + Antidote 1 0.07 + Herbicide 1 0.07 kg/Ha,23%
same,% Injury VELE,VELE (velvetleaf); Insecticide 2 3.36 + Antidote 1 0.07 + Herbicide 4 0.07 kg/Ha,0%
same,% Injury VELE,VELE (velvetleaf); Insecticide 2 3.36 + Antidote 1 0.07 + Herbicide 5 0.07 kg/Ha,55%
same,% Injury VELE,VELE (velvetleaf); Insecticide 2 3.36 + Antidote 1 0.07 + Herbicide 6 0.07 kg/Ha,15%
same,% Injury VELE,VELE (velvetleaf); Insecticide 2 3.36 + Antidote 1 0.14 + Herbicide 4 0.14 kg/Ha,78%
same,% Injury VELE,VELE (velvetleaf); Insecticide 2 3.36 + Antidote 1 0.14 + Herbicide 5 0.14 kg/Ha,83%
same,% Injury VELE,VELE (velvetleaf); Insecticide 2 3.36 + Antidote 1 0.14 + Herbicide 6 0.14 kg/Ha,40%

# Source: EP0565593B1, “REDUCING PESTICIDAL INTERACTIONS IN CROPS” (priority 1990, dated 1992)
